Molecular target: T1, rPanx1 (Rattus norvegicus Pannexin-1) expressed in 293T cells (Rattus norvegicus, UniProt P60570)
T1 construct: expressed in transfected cells; host or cells: Human embryonic kidney-293T cells (ATCC), transient Lipofectamine 2000 transfection
Assay: Whole-cell patch-clamp of Panx1 currents in transfected 293T cells
Type: cell-based, Homo sapiens
Details: voltage ramp -80 to +80 mV, various doses
Experimental: To further compare the effects of probenecid, Compounds 1 and 5 on Pannexin-1 channels […] Panx-1 was expressed in embryonic kidney-293T cells (293T) and channel activity was assessed at various doses of each compound.
Rattus norvegicus Pannexin-1 (rPanx1) complementary DNA (cDNA) was cloned between BamHI and SalI sites in a pRK5 expression vector (pRK5-rPanx1). Enhanced green fluorescent protein (EGFP) plasmid (pEGFP-C1) was commercially purchased (addgene).
Human embryonic kidney-293T cells (293T) were purchased from ATCC and routinely maintained in the laboratory. Adherent 293T cells were grown in Dulbecco's modified Eagle's medium (Thermo Fisher) supplemented with 10% fetal bovine serum (Thermo Fisher) and 1% penicillin-streptomycin (10,000 U/mL; Thermo Fisher) at 37° C. in a 5% CO2 humidified growth incubator. 293T cells between the passages 6-20 were used for experiments. For patch-clamp recordings, 293T cells reaching 40-60% confluency on 35 mm culture plates were transiently transfected using Lipofectamine 2000 (Thermo Fisher) 36-48 hours before experiments, using the manufacturer's protocol. 293T cells were transfected with 2.5 μg pRK5-rPanx1 and 0.5 μg pEGFP-C1 cDNAs at a mixed ratio of 5:1 to identify positively transfected cells.
On the day of experiments, transiently transfected 293T cells overexpressing rPanx1 and EGFP cDNAs were seeded onto poly-d-lysine coated glass coverslips at least 2 hours before recordings. […] Data was acquired using Clampex (v.10) software and an Axon Digidata 1550A digitizer (Axon Instruments) at 10 kHz, with currents analyzed offline in Clampfit software (v.10.7). […]
293T cells were voltage clamped at −60 mV in whole-cell configuration and exposed to a 300 ms voltage ramp (−80 to +80 mV) before stepping back to −60 mV to record rPanx1 voltage-sensitive currents. Baseline currents were first measured in extracellular solution before perfusion of drug compounds in incrementally increasing concentrations. […]

T1 sequence (P60570 whole entry): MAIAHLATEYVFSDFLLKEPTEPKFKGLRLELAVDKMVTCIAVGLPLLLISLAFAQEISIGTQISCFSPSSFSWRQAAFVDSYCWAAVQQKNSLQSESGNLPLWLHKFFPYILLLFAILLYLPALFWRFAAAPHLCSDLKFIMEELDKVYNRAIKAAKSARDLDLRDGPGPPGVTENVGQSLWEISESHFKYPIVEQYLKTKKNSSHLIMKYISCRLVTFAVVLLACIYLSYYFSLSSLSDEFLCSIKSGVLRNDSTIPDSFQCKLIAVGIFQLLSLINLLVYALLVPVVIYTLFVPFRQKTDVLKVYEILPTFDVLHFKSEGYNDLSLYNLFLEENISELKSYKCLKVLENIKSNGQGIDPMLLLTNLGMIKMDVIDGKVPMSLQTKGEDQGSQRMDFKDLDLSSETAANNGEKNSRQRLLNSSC

Panx1 inhibitory potency relative to Probenecid (patch-clamp): more potent
SMILES: CCCN(CCC)S(=O)(=O)c1ccc(C(O)(C(F)(F)F)C(F)(F)F)cc1 [Compound 1, 4-(1,1,1,3,3,3-hexafluoro-2-hydroxypropan-2-yl)-N,N-dipropylbenzenesulfonamide]

From patent publication US20240166596A1, “SULFAMOYL BENZENE DERIVATIVES AND USES THEREOF” (AphioTx Inc., priority 2021, published 2024)
